“Also recorded” adds a separate entry of the source. Like-named read-outs stand apart in the source and are kept apart here.

As usually defined, the IC50 is the concentration needed to halve the response being measured.

The test system of one experiment is PKC isozymes. The conditions noted are these: cited from earlier work.
A further experiment has as its target protein kinase C eta (Homo sapiens, UniProt P24723). Put plainly: PKC Enzyme Assay, eta isozyme. The format is biochemical. As to conditions: 30 μM ATP, 30° C., 10 minutes. As for the experimental part:
(§1) PKC enzymes=alpha, beta 1, beta II, gamma, delta, epsilon, eta and zeta.
(§2) Assay components in a total volume of 250 μL are the following:
(§3) Vesicles consisting of 120 μg/mL phosphatidylserine (Avanti Polar Lipids)and sufficient diacylglycerol (Avanti Polar Lipids) to activate the enzyme to maximum activity in 20 mM HEPES buffer (Sigma, St. Louis, Mo.), pH 7.5, 940 μM calcium chloride (Sigma, St. Louis, Mo.) for assaying the alpha, beta I, beta II and gamma enzyme only, 1 mM EGTA for all the enzymes, 10 mM magnesium chloride (Sigma, St. Louis, Mo.) and 30 μM (gamma-32P) ATP (DuPont). For all the enzymes either histone type HL (Worthington) or myelin basic protein is used as substrate. The assay is started by addition of protein kinase C enzyme incubated at 30° C. for 10 minutes and stopped by adding 0.5 mL of cold trichloroacetic acid (Amresco) followed by 100 μL of 1 mg/mL bovine serum albumin (Sigma, St. Louis, Mo.). The precipitate is collected by vacuum filtration on glass fiber filters employing a TOMTEC™ filtration system and quantified by counting in a beta scintillation counter.

A further experiment has as its target protein kinase C alpha (Homo sapiens, UniProt P17252). Put plainly: PKC Enzyme Assay, alpha isozyme. The format is biochemical. As to conditions: 30 μM ATP, 30° C., 10 minutes. As for the experimental part: as §1, §2, §3
In a further experiment the target is protein kinase C beta-1 (Homo sapiens, UniProt P05771). Put plainly: PKC Enzyme Assay, beta-1 isozyme. It is filed as biochemical. The conditions noted are these: PKC beta-1; 30 μM ATP, 30° C., 10 minutes; read-out: IC50 β1. As for the experimental part: as §1, §2, §3
The target of the next experiment is protein kinase C beta-2 (Homo sapiens, UniProt P05771). Put plainly: PKC Enzyme Assay, beta-2 isozyme. The format is biochemical. The conditions noted are these: PKC beta-2; 30 μM ATP, 30° C., 10 minutes; read-out: IC50 β2. As for the experimental part: as §1, §2, §3
The next experiment addresses protein kinase C gamma (Homo sapiens, UniProt P05129). Put plainly: PKC Enzyme Assay, gamma isozyme. The format is biochemical. The conditions noted are these: 30 μM ATP, 30° C., 10 minutes. As for the experimental part: as §1, §2, §3
The next experiment addresses protein kinase C delta (Homo sapiens, UniProt Q05655). The experiment can be described thus: PKC Enzyme Assay, delta isozyme. It is filed as biochemical. As to conditions: 30 μM ATP, 30° C., 10 minutes.
Another experiment addresses T1, protein kinase C epsilon (Homo sapiens, UniProt Q02156).
T1 sequence (Q02156 1-737): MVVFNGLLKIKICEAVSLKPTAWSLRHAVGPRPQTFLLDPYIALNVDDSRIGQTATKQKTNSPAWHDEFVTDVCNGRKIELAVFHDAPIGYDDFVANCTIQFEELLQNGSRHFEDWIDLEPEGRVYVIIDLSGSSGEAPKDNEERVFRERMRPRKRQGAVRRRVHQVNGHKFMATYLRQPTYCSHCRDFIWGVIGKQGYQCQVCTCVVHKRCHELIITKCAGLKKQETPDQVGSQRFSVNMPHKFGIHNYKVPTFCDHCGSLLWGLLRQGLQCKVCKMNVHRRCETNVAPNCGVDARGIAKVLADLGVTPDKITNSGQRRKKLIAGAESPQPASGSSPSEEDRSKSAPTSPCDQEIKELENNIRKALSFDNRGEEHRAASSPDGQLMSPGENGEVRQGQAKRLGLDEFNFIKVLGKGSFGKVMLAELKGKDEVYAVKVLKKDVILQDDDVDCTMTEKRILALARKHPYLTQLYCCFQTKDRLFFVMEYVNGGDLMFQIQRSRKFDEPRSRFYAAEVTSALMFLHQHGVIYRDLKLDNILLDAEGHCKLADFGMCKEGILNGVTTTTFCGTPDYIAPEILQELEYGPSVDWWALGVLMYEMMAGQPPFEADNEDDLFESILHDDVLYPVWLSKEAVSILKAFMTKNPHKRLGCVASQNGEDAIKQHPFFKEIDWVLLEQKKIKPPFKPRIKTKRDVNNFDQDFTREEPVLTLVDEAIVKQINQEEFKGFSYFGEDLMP
The experiment can be described thus: PKC Enzyme Assay, epsilon isozyme. The format is biochemical. As to conditions: 30 μM ATP, 30° C., 10 minutes. As for the experimental part: as §1, §2, §3

In a further experiment the target is T2, protein kinase C zeta (Homo sapiens, UniProt Q05513).
T2 sequence (Q05513 1-592): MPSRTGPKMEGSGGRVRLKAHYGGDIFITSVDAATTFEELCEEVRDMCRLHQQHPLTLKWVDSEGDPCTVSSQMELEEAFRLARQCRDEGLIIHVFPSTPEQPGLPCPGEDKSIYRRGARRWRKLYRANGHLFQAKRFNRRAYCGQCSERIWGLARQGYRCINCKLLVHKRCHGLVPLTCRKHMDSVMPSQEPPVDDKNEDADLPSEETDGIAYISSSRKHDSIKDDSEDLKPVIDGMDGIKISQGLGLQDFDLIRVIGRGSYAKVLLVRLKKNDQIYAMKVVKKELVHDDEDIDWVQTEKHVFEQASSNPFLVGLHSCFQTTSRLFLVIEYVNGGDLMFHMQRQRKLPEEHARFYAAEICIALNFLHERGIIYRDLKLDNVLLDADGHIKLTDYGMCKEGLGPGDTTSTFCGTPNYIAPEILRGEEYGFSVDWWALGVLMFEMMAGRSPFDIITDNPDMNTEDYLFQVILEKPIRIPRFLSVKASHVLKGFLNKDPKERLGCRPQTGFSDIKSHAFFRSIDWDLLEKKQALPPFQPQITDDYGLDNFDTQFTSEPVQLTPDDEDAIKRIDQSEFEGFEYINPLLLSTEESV
The experiment can be described thus: PKC Enzyme Assay, zeta isozyme. It is filed as biochemical. As to conditions: 30 μM ATP, 30° C., 10 minutes. As for the experimental part: as §1, §2, §3

protein kinase C eta, sequence (P24723 whole entry): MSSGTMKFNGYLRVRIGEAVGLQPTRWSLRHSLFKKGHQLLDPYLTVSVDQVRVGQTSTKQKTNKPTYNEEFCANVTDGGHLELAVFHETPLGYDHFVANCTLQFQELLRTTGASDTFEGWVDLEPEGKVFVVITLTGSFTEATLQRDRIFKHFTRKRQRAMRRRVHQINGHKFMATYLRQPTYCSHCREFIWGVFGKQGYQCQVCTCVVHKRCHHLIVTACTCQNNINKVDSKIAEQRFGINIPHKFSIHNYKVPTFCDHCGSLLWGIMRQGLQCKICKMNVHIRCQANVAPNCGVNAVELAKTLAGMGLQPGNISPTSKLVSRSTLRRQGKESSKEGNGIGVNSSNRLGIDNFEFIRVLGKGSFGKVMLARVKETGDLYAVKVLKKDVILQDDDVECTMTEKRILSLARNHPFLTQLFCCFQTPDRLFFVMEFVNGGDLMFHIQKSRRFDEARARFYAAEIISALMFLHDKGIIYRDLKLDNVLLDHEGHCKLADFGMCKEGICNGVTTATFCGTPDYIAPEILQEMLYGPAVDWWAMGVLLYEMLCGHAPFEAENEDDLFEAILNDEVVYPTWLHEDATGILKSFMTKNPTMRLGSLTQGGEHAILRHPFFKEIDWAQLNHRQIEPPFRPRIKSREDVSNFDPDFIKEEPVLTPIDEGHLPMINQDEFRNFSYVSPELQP
protein kinase C beta-1, sequence (P05771 whole entry): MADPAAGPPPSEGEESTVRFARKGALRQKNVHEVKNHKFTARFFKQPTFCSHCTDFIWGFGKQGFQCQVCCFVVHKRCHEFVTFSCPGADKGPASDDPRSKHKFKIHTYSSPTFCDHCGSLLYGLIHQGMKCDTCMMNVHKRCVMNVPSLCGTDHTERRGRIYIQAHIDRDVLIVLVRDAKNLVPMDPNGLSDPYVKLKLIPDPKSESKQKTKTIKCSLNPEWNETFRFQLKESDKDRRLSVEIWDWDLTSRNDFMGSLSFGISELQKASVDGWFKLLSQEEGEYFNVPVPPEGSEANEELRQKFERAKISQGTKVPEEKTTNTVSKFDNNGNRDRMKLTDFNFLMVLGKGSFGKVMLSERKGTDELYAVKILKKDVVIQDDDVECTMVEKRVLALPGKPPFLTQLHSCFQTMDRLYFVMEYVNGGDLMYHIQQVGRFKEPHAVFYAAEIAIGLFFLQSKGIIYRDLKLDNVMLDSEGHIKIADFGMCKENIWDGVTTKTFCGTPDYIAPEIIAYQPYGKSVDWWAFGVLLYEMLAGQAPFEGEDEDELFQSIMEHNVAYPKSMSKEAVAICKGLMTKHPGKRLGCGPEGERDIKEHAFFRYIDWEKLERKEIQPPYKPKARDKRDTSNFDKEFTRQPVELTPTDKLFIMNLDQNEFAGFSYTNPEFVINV
protein kinase C beta-2, sequence (P05771 1-673 isoform P05771-2): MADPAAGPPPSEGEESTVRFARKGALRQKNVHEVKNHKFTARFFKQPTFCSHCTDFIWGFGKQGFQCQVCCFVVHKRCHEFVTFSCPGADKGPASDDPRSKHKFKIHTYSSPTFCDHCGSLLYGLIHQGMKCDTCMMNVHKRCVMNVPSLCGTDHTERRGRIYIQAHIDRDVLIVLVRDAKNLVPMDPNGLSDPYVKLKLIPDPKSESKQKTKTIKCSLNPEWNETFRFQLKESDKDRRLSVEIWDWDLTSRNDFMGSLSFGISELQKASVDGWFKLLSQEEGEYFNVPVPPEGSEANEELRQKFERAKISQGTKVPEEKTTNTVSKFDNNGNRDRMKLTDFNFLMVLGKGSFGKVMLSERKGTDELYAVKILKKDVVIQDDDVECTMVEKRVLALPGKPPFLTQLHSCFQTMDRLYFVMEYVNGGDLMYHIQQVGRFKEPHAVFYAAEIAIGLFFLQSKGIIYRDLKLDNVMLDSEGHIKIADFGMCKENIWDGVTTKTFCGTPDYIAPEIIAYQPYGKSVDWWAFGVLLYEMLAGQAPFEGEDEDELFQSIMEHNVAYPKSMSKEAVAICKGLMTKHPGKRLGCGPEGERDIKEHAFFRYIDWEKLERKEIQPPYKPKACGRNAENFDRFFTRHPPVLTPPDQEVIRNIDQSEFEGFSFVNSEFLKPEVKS
protein kinase C delta, sequence (Q05655 whole entry): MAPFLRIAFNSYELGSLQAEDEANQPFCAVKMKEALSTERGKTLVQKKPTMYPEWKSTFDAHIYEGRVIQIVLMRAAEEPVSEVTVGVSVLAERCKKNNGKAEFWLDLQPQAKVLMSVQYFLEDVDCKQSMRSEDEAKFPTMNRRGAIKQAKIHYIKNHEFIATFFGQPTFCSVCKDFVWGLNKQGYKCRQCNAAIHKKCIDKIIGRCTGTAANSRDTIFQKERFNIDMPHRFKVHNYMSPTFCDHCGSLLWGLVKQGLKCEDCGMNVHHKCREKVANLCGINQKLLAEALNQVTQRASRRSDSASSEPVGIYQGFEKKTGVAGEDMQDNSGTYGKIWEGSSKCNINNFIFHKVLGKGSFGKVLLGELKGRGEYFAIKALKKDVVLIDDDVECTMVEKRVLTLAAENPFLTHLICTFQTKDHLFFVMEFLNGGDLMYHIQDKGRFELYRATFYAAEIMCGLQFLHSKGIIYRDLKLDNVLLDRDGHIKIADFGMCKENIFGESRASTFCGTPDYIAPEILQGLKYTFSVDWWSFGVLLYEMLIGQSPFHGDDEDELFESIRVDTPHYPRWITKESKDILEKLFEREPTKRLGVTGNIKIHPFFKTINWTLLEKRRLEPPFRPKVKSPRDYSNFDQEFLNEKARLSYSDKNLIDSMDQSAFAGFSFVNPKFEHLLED

Consider `CN(C)CCCn1cc(C2=C(c3c[nH]c4ccccc34)C(=O)NC2=O)c2ccccc21` [3-[1-(3-dimethylaminopropyl)-indol-3-yl]-4-(1H-indol-3-yl)-1H-pyrrole-2,5-dione], for which the isozyme selectivity result in the experiment on PKC isozymes (Martiny-Baron, et al., J. Biol. Chem. 268:9194-9197 (1993)) was “slight selectivity for isozymes, alpha and beta versus delta, epsilon, and zeta; also recorded: no differences in the selectivity between alpha and beta-1 isozymes”; in the experiment on PKC isozymes (Toullec et al., J. Biol. Chem. 266:15771-15781 (1991)), “slight selectivity for the calcium dependent isozymes; also recorded: no isozyme selectivity between alpha, beta-1, beta-2, and gamma”.
On protein kinase C eta, `CC(C)(C)OC(=O)NCC(=O)n1cc(C2=C(c3cn(CCCN=[N+]=[N-])c4ccccc34)C(=O)NC2=O)c2ccccc21` [Example 1, 3-[1-(3-azidopropyl)-3-indolyl]-4-[(1-N-^t BOC )-glycine-3indolyl]-1H-pyrrol-2,5-dione] returned an IC50 of 2600 nM.
Consider `CN(C)CCCn1cc(C2=C(c3cn(C(=O)CNC(=O)OC(C)(C)C)c4ccccc34)C(=O)NC2=O)c2ccccc21` [Example 2, 3-[1-(3-N,N'-dimethylaminopropyl)-3-indolyl]-4-[(1-N-^t BOC)-glycine-3-indolyl]-1H-pyrrol-2,5-dione], for which the IC50 at protein kinase C alpha worked out at 2300 nM; at protein kinase C beta-1, 150 nM; on protein kinase C beta-2, 40 nM; at protein kinase C gamma, 2600 nM; against protein kinase C delta, 2900 nM; at protein kinase C epsilon, 6100 nM. The IC50 on protein kinase C zeta came out at 45000 nM; at protein kinase C eta, 370 nM.
Turning to `CC(C)(C)OC(=O)N[C@@H](Cc1ccccc1)C(=O)n1cc(C2=C(c3cn(C(=O)[C@H](Cc4ccccc4)NC(=O)OC(C)(C)C)c4ccccc34)C(=O)NC2=O)c2ccccc21` [Example 3, 3,4-Bis[(1-N-^t BOC)-phenylalanine-3-indolyl]-1H-Pyrrol-2,5-dione], the IC50 at protein kinase C beta-1 worked out at 1000 nM.
